Here are results for 33 compounds from patent US8178688B2, “Benzamidine derivatives, process for the preparation thereof and pharmaceutical composition comprising the same” (Dong Wha Pharmaceutical Co., Ltd., priority 2004, dated 2012).

In the first assay the test system is osteoclast differentiation. As to the kind of experiment: Inhibitory effects on osteoclast differentiation (co-culture of bone marrow cells with osteoblast, TRAP staining). The following applies: Mus musculus, Osteoclast, 168 h; 1 m; co-culture of bone marrow cells and osteoblast, 7 days, TRAP-positive osteoclasts versus controls; read-out: % inhibitory activity on osteoclastogenesis. It is filed as cell-based, mice. A digest of the protocol:
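Percent inhibition versus control is based on microscope counts of TRAP-positive osteoclasts (3 or more nuclei) after 7 days of compound exposure. Cultures paired ddY mouse marrow cells with ICR calvarial osteoblasts, driven by dexamethasone 10^−7M plus vitamin D3 10^−8M, with medium and compound changed every 2–3 days.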
Turning to `CCN(CC)c1nc(-c2ccc(OCCCCCOc3ccc(C(=N)NO)cc3)cc2)c(C(C)C)s1` [Example 162, N-hydroxy-4-(5-[4-(5-isopropyl-2-diethylamino-1,3-thiazol-4-yl)phenoxy]pentoxy)-benzamidine], the inhibition at 1 µM was found to be 87.4%.

As to `CN(C)c1nc(-c2ccc(OCCCCCOc3ccc(C(=N)NO)cc3)cc2)c(CC2CCCC2)s1` [Example 163, N-hydroxy-4-(5-[4-(5-cyclopentylmethyl-2-dimethylamino-1,3-thiazol-4-yl)phenoxy]pentoxy)-benzamidine], the inhibition at 1 µM is 88.1%.

For the compound `CN1CCN(c2nc(-c3ccc(OCCCCCOc4ccc(C(=N)NO)cc4)cc3)c(CC3CCCC3)s2)CC1` [Example 170, N-hydroxy-4-(5-(4-[5-cyclopentylmethyl-2-(4-methylpiperazino)-1,3-thiazol-4-yl]phenoxy)-pentoxy)-benzamidine], the inhibition at 1 µM was found to be 93.9%.

As for `C=Cc1sc(N2CCOCC2)nc1-c1ccc(OCCCCCOc2ccc(C(=N)NO)cc2)cc1` [Example 171, N-hydroxy-4-(5-[4-(5-vinyl-2-morpholin-4-yl-1,3-thiazol-4-yl)phenoxy]pentoxy)-benzamidine], the inhibition at 1 µM was 96.2%.

For the compound `N=C(NO)c1ccc(OCCCCCOc2ccc(-c3nc(N4CCOCC4)sc3C3CCCC3)cc2)cc1` [Example 172, N-hydroxy-4-(5-[4-(5-cyclopentyl-2-morpholin-4-yl-1,3-thiazol-4-yl)phenoxy]pentoxy)-benzamidine], the inhibition at 1 µM amounted to 87.8%.

For `CC(C)Cc1sc(N2CCOCC2)nc1-c1ccc(OCCCCCOc2ccc(C(=N)NO)cc2)cc1` [Example 173, N-hydroxy-4-[5-[4-(5-isobutyl-2-morpholin-4-yl-1,3-thiazol-4-yl)phenoxy]pentoxy)-benzamidine], the inhibition at 1 µM was 9%.

As for `N=C(NO)c1ccc(OCCCCCOc2ccc(-c3csc(N4CCOCC4)n3)cc2)cc1` [Example 175, N-hydroxy-4-(5-[4-(2-morpholin-4-yl-1,3-thiazol-4-yl)phenoxy]pentoxy)-benzamidine], the inhibition at 1 µM came to 61.9%.

For the compound `Cc1nc(-c2ccc(OCCOCCOc3ccc(C(=N)NO)cc3)cc2)c(C(C)C)s1` [Example 178, N-hydroxy-4-(2-[2-(4-(5-isopropyl-2-methyl-1,3-thiazol-4-yl)phenoxy)-ethoxy]-ethoxy)-benzamidine], the inhibition at 1 µM is 36.8%.

Take `Cc1nc(-c2ccc(OCCC(C)(O)CCOc3ccc(C(=N)NO)cc3)cc2)c(C(C)C)s1` (stereo not drawn) [Example 179, N-hydroxy-4-(3-hydroxy-5-[4-(5-isopropyl-2-methyl-1,3-thiazol-4-yl)-phenoxy]-3-methyl-pentoxy)-benzamidine]: the inhibition at 1 µM was determined as 100%.

For `Cc1nc(-c2ccc(OCC(C)NCCOc3ccc(C(=N)NO)cc3)cc2)c(C(C)C)s1` (stereo not drawn) [Example 180, N-hydroxy-4-(2-[2-(4-(5-isopropyl-2-methyl-1,3-thiazol-4-yl)-phenoxy)-1-methyl-ethylamino]-ethoxy)-benzamidine], the inhibition at 1 µM was found to be 32.6%.

With `Cc1nc(-c2ccc(OCCCCC(=O)Nc3ccc(C(=N)NO)cc3)cc2)c(C(C)C)s1` [Example 182, N-hydroxy-4-(5-[4-(5-isopropyl-2-methyl-1,3-thiazol-4-yl)-phenoxy]-pentanoyl-amino)-benzamidine], the inhibition at 1 µM stood at 81.1%.

Regarding `Cc1nc(-c2ccc(OCCCCCN(C)c3ccc(C(=N)NO)cc3)cc2)c(C(C)C)s1` [Example 183, N-hydroxy-4-(5-[4-(5-isopropyl-2-methyl-1,3-thiazol-4-yl)-phenoxy]-pentyl-methyl-amino)-benzamidine], the inhibition at 1 µM amounted to 65.6%.

`Cc1nc(-c2ccc(OCCNCCOc3ccc(C(=N)NO)cc3)cc2)c(C(C)C)s1` [Example 186, N-hydroxy-4-(2-[2-(4-(5-isopropyl-2-methyl-1,3-thiazol-4-yl)phenoxy)-ethylamino]-ethoxy)-benzamidine]: the inhibition at 1 µM came to 71%.

With `Cc1nc(-c2ccc(OCCCCCOc3ccc(C(=N)NO)c(NC4CCCCC4)c3)cc2)c(C(C)C)s1` [Example 190, N-hydroxy-2-cyclohexylamino-4-(5-[4-(5-isopropyl-2-methyl-1,3-thiazol-4-yl)-phenoxy]-pentoxy)-benzamidine], the inhibition at 1 µM was 27.3%.

Regarding `Cc1nc(-c2ccc(OCCCCCOc3ccc(C(=N)NO)cc3)cc2F)c(C(C)C)s1` [Example 191, N-hydroxy-4-(5-[3-fluoro-4-(5-isopropyl-2-methyl-1,3-thiazol-4-yl)-phenoxy]-pentoxy)-benzamidine], the inhibition at 1 µM is 8.8%.

On to `Cc1nc(-c2ccc(OCCCCCOc3ccc(C(=N)NO)c(F)c3)cc2F)c(C(C)C)s1` [Example 192, N-hydroxy-2-fluoro-4-(5-[3-fluoro-4-(5-isopropyl-2-methyl-1,3-thiazol-4-yl)-phenoxy]-pentoxy)-benzamidine], for which the inhibition at 1 µM was determined as 70.5%.

For `Cc1nc(-c2ccc(OCCCOc3ccc(C(=N)NO)cc3)cc2)c(C(C)C)s1` [Example 193, N-hydroxy-4-(3-[4-(5-isopropyl-2-methyl-1,3-thiazol-4-yl)phenoxy]propoxy)-benzamidine], the inhibition at 1 µM is 54.1%.

Turning to `Cc1nc(-c2ccc(OCCCCOc3ccc(C(=N)NO)cc3)cc2)c(C(C)C)s1` [Example 194, N-hydroxy-4-(4-[4-(5-isopropyl-2-methyl-1,3-thiazol-4-yl)phenoxy]butoxy)-benzamidine], the inhibition at 1 µM turned out to be 19.8%.

For the compound `Cc1nc(-c2ccc(OCCCCCNc3cccc(C(=N)NO)c3)cc2)c(C(C)C)s1` [Example 195, N-hydroxy-3-(5-[4-(5-isopropyl-2-methyl-thiazol-4-yl)-phenoxy]-pentylamino)-benzamidine], the inhibition at 1 µM is 42.3%.

For `CCc1sc(C2CCCCC2)nc1-c1ccc(OCCCCOc2ccc(C(=N)NO)cc2)cc1` [Example 196, N-hydroxy-4-(4-[4-(2-cyclohexyl-5-ethyl-thiazol-4-yl)-phenoxy]-butoxy)-benzamidine], the inhibition at 1 µM was determined as 82%.

In the case of `CCc1sc(N(C)CCO)nc1-c1ccc(OCCCCOc2ccc(C(=N)NO)cc2)cc1` [Example 198, N-hydroxy-4-(4-[4-(5-ethyl-2-[(2-hydroxyethyl)-methyl-amino]-thiazol-4-yl)phenoxy]butoxy)-benzamidine], the inhibition at 1 µM was 36.9%.

In the case of `CCc1sc(N(C)Cc2cccnc2)nc1-c1ccc(OCCCOc2ccc(C(=N)NO)cc2)cc1` [Example 199, N-hydroxy-4-(3-[4-(5-ethyl-2-[methyl-(pyridin-3-yl-methyl)amino]-thiazol-4-yl)phenoxy]propoxy)-benzamidine], the inhibition at 1 µM was 82.9%.

For `CCc1sc(N(C)Cc2cccnc2)nc1-c1ccc(OCCCCOc2ccc(C(=N)NO)cc2)cc1` [Example 200, N-hydroxy-4-(4-[4-(5-ethyl-2-[methyl-(pyridin-3-yl-methyl)amino]-thiazol-4-yl)phenoxy]butoxy)-benzamidine], the inhibition at 1 µM amounted to 38.7%.

With `CC(C)c1nc(-c2ccc(OCc3ccc(COc4ccc(C(=N)NO)cc4)cc3)cc2)c(CC2CCCC2)s1` [Example 201, N-hydroxy-4-(4-[4-(5-cyclopentylmethyl-2-isopropyl-thiazol-4-yl)-phenoxymethyl]-benzyloxy)-benzamidine], the inhibition at 1 µM was determined as 85.6%.

Take `CCCCc1sc(C(C)C)nc1-c1ccc(OCc2ccc(COc3ccc(C(=N)NO)cc3)cc2)cc1` [Example 202, N-hydroxy-4-(4-[4-(5-butyl-2-isopropyl-thiazol-4-yl)-phenoxymethyl]-benzyloxy)-benzamidine]: the inhibition at 1 µM came to 85.6%.

Regarding `Cc1nc(-c2ccc(OCc3cccc(COc4ccc(C(=N)NO)cc4)c3)cc2)c(C(C)C)s1` [Example 209, N-hydroxy-4-(3-[4-(5-isopropyl-2-methyl-thiazol-4-yl)-phenoxymethyl]-benzyloxy)-benzamidine], the inhibition at 1 µM came to 14.3%.

For the compound `N=C(NO)c1ccc(OCc2ccc(COc3ccc(-c4nc(C5CCCCC5)sc4CC4CCCC4)cc3)cc2)cc1` [Example 210, N-hydroxy-4-(4-[4-(5-cyclopentylmethyl-2-cyclohexyl-thiazol-4-yl)-phenoxymethyl]-benzyloxy)-benzamidine], the inhibition at 1 µM was found to be 68.8%.

Turning to `Cc1nc(-c2ccc(OCCCCCCOc3ccc(C(=N)NO)cc3)cc2)c(C(C)C)s1` [Example 211, N-hydroxy-4-(6-[4-(5-isopropyl-2-methyl-thiazol-4-yl)phenoxy]-hexyloxy)-benzamidine], the inhibition at 1 µM turned out to be 44%.

As for `CCCOc1cc(OCCCCCOc2ccc(C(=N)NO)cc2)c(CC)cc1-c1csc(C)n1` [Example 213, N-hydroxy-4-(5-[2-ethyl-4-(2-methyl-thiazol-4-yl)-5-propoxy-phenoxy]-pentyloxy)-benzamidine], the inhibition at 1 µM turned out to be 91.8%.

The assay is the same for the next values; noted with them: co-culture of bone marrow cells and osteoblast, 7 days, TRAP-positive osteoclasts versus controls.
With `Cc1sc(N2CCCCC2)nc1-c1ccc(OCCCCCOc2ccc(C(=N)NO)cc2)cc1` [Example 164, N-hydroxy-4-(5-[4-(5-methyl-2-piperdino-1,3-thiazol-4-yl)phenoxy]pentoxy)-benzamidine], the “% inhibitory activity on osteoclastogenesis” value (shortened to “% inhibitory activity”) is 67.4%.

As to `COc1cc(C(=N)NO)ccc1OCCCCCOc1ccc(-c2nc(C)sc2C(C)C)cc1` [Example 189, N-hydroxy-4-(5-[4-(5-isopropyl-2-methyl-1,3-thiazol-4-yl)-phenoxy]-pentoxy-3-methoxy)-benzamidine], the “% inhibitory activity” value came out at 38.7%.

On to `N=C(NO)c1ccc(OCc2ccc(COc3ccc(-c4nc(N)sc4CC4CCCC4)cc3)cc2)cc1` [Example 203, N-hydroxy-4-(4-[4-(5-cyclopentylnnethyl-2-amino-thiazol-4-yl)-phenoxymethyl]-benzyloxy)-benzamidine], for which the “% inhibitory activity” value is recorded as 68.8%.

Regarding `Cc1nc(-c2ccc(OCCCCOc3ccc(C(=N)NO)c(F)c3)cc2)c(C(C)C)s1` [Example 207, N-hydroxy-2-fluoro-4-(5-[4-(5-isopropyl-2-methyl-thiazol-4-yl)-phenoxy]-butoxy)-benzamidine], the “% inhibitory activity” value is 14.4%.
